The test system of experiment [1] is THF-II-lotiTL U44C mutant (RNA, riboswitch) GGCGUGGUCCGUUCAACUCGUUCCUCGAAAGAGGAACCACGGGAGACGCC
Kind of experiment: ITC. The note with it: K+ 100 mM, Mg2+ (concentration not stated for this titration); 20 mM Tris-HCl pH 7.5, 1 mM TCEP, 25 °C; 0.75 mM ligand in syringe into 30 μM RNA.

In experiment [2] the test system is THF-II-lotiTL U44A mutant (RNA, riboswitch) GGCGUGGUCCGUUCAACUCGUUCCUCGAAAGAGGAACAACGGGAGACGCC
The experiment can be described thus: ITC. The note with it: K+ 100 mM, Mg2+ (concentration not stated for this titration); 20 mM Tris-HCl pH 7.5, 1 mM TCEP, 25 °C; 0.75 mM ligand in syringe into 30 μM RNA.

The test system of experiment [3] is THF-II-lotiTL C22G mutant (THF-II-lotiTL-C22G) (RNA, riboswitch) GGCGUGGUCCGUUCAAGUCGUUCCUCGAAAGAGGAACUACGGGAGACGCC
The experiment can be described thus: ITC. The note with it: K+ 100 mM, Mg2+ (concentration not stated for this titration); 20 mM Tris-HCl pH 7.5, 1 mM TCEP, 25 °C; 0.75 mM ligand in syringe into 30 μM RNA.

Experiment [4] deals with THF-II-lotiTL C22U mutant (RNA, riboswitch) GGCGUGGUCCGUUCAAUUCGUUCCUCGAAAGAGGAACUACGGGAGACGCC
Kind of experiment: ITC. The conditions noted are these: K+ 100 mM, Mg2+ (concentration not stated for this titration); 20 mM Tris-HCl pH 7.5, 1 mM TCEP, 25 °C; 0.75 mM ligand in syringe into 30 μM RNA.

Experiment [5] deals with THF-II-lotiTL (RNA, riboswitch) GGCGUGGUCCGUUCAACUCGUUCCUCGAAAGAGGAACUACGGGAGACGCC
Kind of experiment: X-ray crystallography. The conditions noted are these: co-crystal, 0.1 M sodium citrate pH 6.5, 1.5-2.5 M ammonium sulfate, 16 °C; RNA:ligand 1:5.

The structures appear in SMILES notation.

For the compound `Nc1nc2c(c(=O)[nH]1)N[C@@H](CNc1ccc(C(=O)N[C@@H](CCC(=O)O)C(=O)O)cc1)CN2`, the binding entry in experiment [1], in experiment [2], in experiment [3] and in experiment [4] was “no” throughout.

In the case of `C[C@H](O)[C@H](O)[C@H]1CNc2nc(N)[nH]c(=O)c2N1`, the binding entry in experiment [5] is listed as “yes”. Same read-out and setting: under `Nc1nc2[nH]ccc2c(=O)[nH]1` stands “yes”; under `Nc1nc2c(c(=O)[nH]1)N=C([C@H](O)[C@H](O)CO)CN2`, “yes”.

(Values after paper PMC9881143 (2023).)
